Laboratory results reported in patent US12084430B2, “Tricyclic urea compounds as JAK2 V617F inhibitors” (Incyte Corporation, priority 2022, dated 2024).

What was measured:
[1] = tested on: STAT5 (Tyr694) phosphorylation in SET-2 cells; assay: STAT5 (Tyr694) phosphorylation cell based assay; details: Homo sapiens, pSTAT5, 2 hours, read-out: SET2 IC50
Description: Example E. STAT5 (Tyr694) Phosphorylation Cell Based Assay
SET-2 cells was purchased from DSMZ (Germany). RPMI1640 medium, Fetal Bovine Serum and 384-white sold flat-bottom small volume plate were purchased from Thermo Fisher Scientific (Waltham, MA). Phospho-STAT5 (Tyr694) HTRF kit was purchased from Perkin Elmer (Waltham, MA).
SET-2 cells were cultured in RPMI media with 20% FBS at 37° C. in humidified incubator supplied with 5% CO2. On the day of assay, the cells were centrifuged to remove the culture media and resuspended with prewarmed RPMI with 10% FBS. Testing compounds were prepared by serial dilution in DMSO and 50 nL/well test compounds were transferred to the 384 white low volume cell culture plate (Greiner Bio-one) by ECHO liquid handler (Labcyte). The cells were then dispensed with Multidrop (Thermo Fisher, Waltham, MA) at 10 μL/well (7×10^6 cells/mL) with 0.5% DMSO in the final assay. After the treated cells were incubated for 2 hours at 37° C./5% CO2 incubator, 4 μL/well supplemented lysis buffer (100× blocking buffer diluted 25 fold in 4× lysis buffer, Perkin Elmer) were added and incubated at room temperature for 90 min on orbital shaker at 600 rpm. Phospho-STAT5 Cryptate antibody and Phospho-STAT5 d2 antibody (1:1 vol/vol) were premixed and diluted 20 fold with in the detection buffer (Perkin Elmer). 4 μL of the premixed antibody solution were added to each well followed with 24 hours incubation at room temperature on orbital shaker at 600 rpm. The product activity was determined by measuring the fluorescence at 620 nm and 665 nm on Pherastar microplate reader (BMG Labtech). A ratio is calculated (665/620) for each well. Wells with DMSO only served as the positive controls and wells containing high concentration of control compound were used as negative controls. IC50 determination was performed by fitting the curve of percent control activity versus the log of the compound concentration using the GraphPad Prism 7.0 software.

[2] = tested on: pSTAT5 signaling in SET-2 cells in whole blood; assay: pSTAT5 SET-2 whole blood MSD assay; format: cell-based; details: Homo sapiens, pSTAT5, 2 hour, read-out: SET2 WB IC50
Description: Example F. pSTAT5 SET-2 Whole Blood MSD Assay
SET-2 cells shipped from ABS, RPMI1640 medium, Fetal Bovine Serum from Gibco, Phospho-STAT5a,b Whole Cell Lysate Kit from Mesoscale, Retronectin (Recombinant Human Fibronectin Fragment) from TaKaRa, 96 well cell culture plate flat bottom from Corning, lysis buffer from Cell Signaling Technology, and sterile PBS from Gibco. Whole Blood from by BioIVT.
SET-2 cells were cultured in RPMI media with 20% FBS at 37° C. humidified incubator supplied with 5% CO2. On the day of the assay, 40 uL per well of diluted retronectin working solution was added to sterile 96-well clear flat bottom tissue culture plates (1:200 dilution of retronectin in sterile PBS) and incubated at 37 C for 1 hour. After 1 hour, the retronectin working solution was aspirated and SET-2 cells were seeded at 100,000/well in RPMI+20% FBS. Cells were incubated overnight at 37° C. and 5% CO2. The next day, the medium was removed and 40 μL of diluted compounds in serum-free RPMI and whole blood was added to the cells for a 2 hour incubation at 37° C. and 5% CO2. The compound starting concentration is 20 μM and 2.5 fold serial diluted down to 0.21 nM. The whole blood and compound mixture was then aspirated off using the BlueCat plate washer and washed 1× with PBS. Cells were lysed by adding 40 μL of 3× complete lysis buffer and shaken at room temperature for 45-60 minutes (complete lysis buffer consists of Cell Signaling Technology lysis buffer diluted to 3× and supplemented with Mesoscale's protease inhibitor, phosphatase I inhibitor, and phosphatase II inhibitor). The pSTAT5 MSD plates were blocked by adding 150 μL of Blocker A solution per well to the MSD plates and incubated at room temperature with shaking at 400 rpm for one hour or longer. After blocking, plates were washed 3× with 300 μL/well of IX Tris Wash Buffer. After lysis, added 25 μL per well of lysed sample was added to MSD plate and incubated with shaking at 4° C. wrapped in foil overnight. The next day, plates were washed again and 25 μL/well of diluted 1× Detection Antibody Solution, wrapped in foil, and incubated at room temperature with shaking at 400 rpm for 1 hour. Plates were then washed again and lastly, 150 μL/well of 1× Read Buffer T was added to all wells. Plates were analyzed on MSD Discovery within 5 minutes. […] Data analysis was performed in GraphPad Prism using a 4-parameter fit and data was reported as Average±SD.

[3] = In vitro intrinsic clearance; format: in vitro ADME; details: human liver microsomes, 1 μM
Description: Example G. In Vitro Intrinsic Clearance Protocol
For in vitro metabolic stability experiments, test compounds were incubated with human liver microsomes at 37° C. The incubation mixture contained test compounds (1 μM), NADPH (2 mM), and human liver microsomes (0.5 mg protein/mL) in 100 mM phosphate buffer (pH 7.4). The mixture was pre-incubated for 2 min at 37° C. before the addition of NADPH. Reactions were commenced upon the addition of NADPH and quenched with ice-cold methanol at 0, 10, 20, and 30 min. Terminated incubation mixtures were analyzed using LC-MS/MS system. The analytical system consisted of a Shimadzu LC-30AD binary pump system and SIL-30AC autosampler (Shimadzu Scientific Instruments, Columbia, MD) coupled with a Sciex Triple Quad 6500+ mass spectrometer from Applied Biosystems (Foster City, CA). […] Mobile phase A consisted of 0.1% formic acid in water, and mobile phase B consisted of 0.1% formic acid in acetonitrile. The total LC-MS/MS runtime was 2.75 minutes with a flow rate of 0.75 mL/min. Peak area integrations and peak area ratio calculations were performed using Analyst software (version 1.6.3) from Applied Biosystems.
The in vitro intrinsic clearance, CLint, in vitro, was calculated from the t1/2 of test compound disappearance as CLint, in vitro=(0.693/t1/2)×(1/Cprotein), where Cprotein is the protein concentration during the incubation, and t1/2 was determined by the slope (k) of the log-linear regression analysis of the concentration versus time profiles; thus, t1/2=ln 2/k. The CLint, in vitro values were scaled to the in vivo values for human by using physiologically based scaling factors, hepatic microsomal protein concentrations (45 mg protein/g liver), and liver weights (21 g/kg body weight). The equation CLint=CLint, in vitro×(mg protein/g liver weight)×(g liver weight/kg body weight) was used. The in vivo hepatic clearance (CLH) was then calculated by using CLint and hepatic blood flow, Q (20 mL·min^−1·kg^−1 in humans) in the well-stirred liver model disregarding all binding from CLH=(Q×CLint)/(Q+CLint). The hepatic extraction ratio was calculated as CLH divided by Q.

SMILES | IC50 [1] | IC50 [2] | h-IntCL [3]
[2H]C([2H])([2H])n1cc(-c2[nH]c3ncc4c(c3c2-c2ccc(C(C)(C)O)cc2)n([C@@H]2CC[C@@H](NC(=O)OC)C2)c(=O)n4C([2H])([2H])[2H])c(F)n1 [Example 10, Methyl ((1R,3R)-3-(7-(3-fluoro-1-(methyl-d3)-1H-pyrazol-4-yl)-8-(4-(2-hydroxypropan-2-yl)phenyl)-3-(methyl-d3)-2-oxo-3,6-dihydroimidazo[4,5-d]pyrrolo[2,3-b]pyridin-1(2H)-yl)cyclopentyl)carbamate] | ≤ 300 nM | ≤ 2500 nM | ‡ ‡ (h-IntCL of ≥0.7 L/h/kg to ≤1 L/h/kg)
[2H]C([2H])([2H])n1cc(-c2[nH]c3ncc4c(c3c2-c2ccc3c(c2)COC3(C)C)n([C@@H]2CC[C@@H](NC(=O)OC)C2)c(=O)n4C)c(F)n1 [Example 11, Methyl ((1R,3R)-3-(8-(1,1-dimethyl-1,3-dihydroisobenzofuran-5-yl)-7-(3-fluoro-1-(methyl-d3)-1H-pyrazol-4-yl)-3-methyl-2-oxo-3,6-dihydroimidazo[4,5-d]pyrrolo[2,3-b]pyridin-1(2H)-yl)cyclopentyl)carbamate] | ≤ 300 nM | ≤ 2500 nM | ‡ ‡ (h-IntCL of ≥0.7 L/h/kg to ≤1 L/h/kg)
[2H]C([2H])([2H])n1c(=O)n([C@@H]2CC[C@@H](NC(=O)OC)C2)c2c3c(-c4ccc5c(c4)COC5(C)C)c(-c4cn(CC(F)F)nc4F)[nH]c3ncc21 [Example 12, Methyl ((1R,3R)-3-(7-(1-(2,2-difluoroethyl)-3-fluoro-1H-pyrazol-4-yl)-8-(1,1-dimethyl-1,3-dihydroisobenzofuran-5-yl)-3-(methyl-d3)-2-oxo-3,6-dihydroimidazo[4,5-d]pyrrolo[2,3-b]pyridin-1(2H)-yl)cyclopentyl)carbamate] | ≤ 300 nM | ≤ 2500 nM | ‡ ‡ (h-IntCL of ≥0.7 L/h/kg to ≤1 L/h/kg)
[2H]C([2H])([2H])n1cc(-c2[nH]c3ncc4c(c3c2-c2ccc3c(cnn3C(C)C)c2)n([C@@H]2CC[C@@H](NC(=O)OC)C2)c(=O)n4C([2H])([2H])[2H])c(F)n1 [Example 13, Methyl ((1R,3R)-3-(7-(3-fluoro-1-(methyl-d3)-1H-pyrazol-4-yl)-8-(1-isopropyl-1H-indazol-5-yl)-3-(methyl-d3)-2-oxo-3,6-dihydroimidazo[4,5-d]pyrrolo[2,3-b]pyridin-1(2H)-yl)cyclopentyl)carbamate] | ≤ 300 nM | ≤ 2500 nM | ‡ ‡ (h-IntCL of ≥0.7 L/h/kg to ≤1 L/h/kg)
[2H]C([2H])([2H])n1cc(-c2[nH]c3ncc4c(c3c2-c2ccc3c(cnn3CC(F)F)c2)n([C@@H]2CC[C@@H](NC(=O)OC)C2)c(=O)n4C([2H])([2H])[2H])c(F)n1 [Example 14, Methyl ((1R,3R)-3-(8-(1-(2,2-difluoroethyl)-1H-indazol-5-yl)-7-(3-fluoro-1-(methyl-d3)-1H-pyrazol-4-yl)-3-(methyl-d3)-2-oxo-3,6-dihydroimidazo[4,5-d]pyrrolo[2,3-b]pyridin-1(2H)-yl)cyclopentyl)carbamate] | ≤ 300 nM | ≤ 2500 nM | ‡ ‡ (h-IntCL of ≥0.7 L/h/kg to ≤1 L/h/kg)
[2H]C([2H])([2H])n1ncc2cc(-c3c(-c4cn(C([2H])([2H])C([2H])([2H])[2H])nc4F)[nH]c4ncc5c(c34)n([C@@H]3CC[C@@H](NC(=O)OC)C3)c(=O)n5C([2H])([2H])[2H])ccc21 [Example 15, Methyl ((1R,3R)-3-(7-(1-(ethyl-d5)-3-fluoro-1H-pyrazol-4-yl)-3-(methyl-d3)-8-(1-(methyl-d3)-1H-indazol-5-yl)-2-oxo-3,6-dihydroimidazo[4,5-d]pyrrolo[2,3-b]pyridin-1(2H)-yl)cyclopentyl)carbamate] | ≤ 300 nM | ≤ 2500 nM | ‡ ‡ (h-IntCL of ≥0.7 L/h/kg to ≤1 L/h/kg)
[2H]C([2H])([2H])n1cc(-c2[nH]c3ncc4c(c3c2-c2ccc3c(cnn3C(C)C)c2)n([C@@H]2CC[C@@H](NC(=O)OC)C2)c(=O)n4C)c(F)n1 [Example 16, Methyl ((1R,3R)-3-(7-(3-fluoro-1-(methyl-d3)-1H-pyrazol-4-yl)-8-(1-isopropyl-1H-indazol-5-yl)-3-methyl-2-oxo-3,6-dihydroimidazo[4,5-d]pyrrolo[2,3-b]pyridin-1(2H)-yl)cyclopentyl)carbamate] | ≤ 300 nM | ≤ 2500 nM | ‡ ‡ (h-IntCL of ≥0.7 L/h/kg to ≤1 L/h/kg)
[2H]C([2H])([2H])n1cc(-c2[nH]c3ncc4c(c3c2-c2cc(F)c3c(cnn3C([2H])([2H])[2H])c2)n([C@@H]2CC[C@@H](NC(=O)OC)C2)c(=O)n4C([2H])([2H])[2H])c(F)n1 [Example 17, Methyl ((1R,3R)-3-(8-(7-fluoro-1-(methyl-d3)-1H-indazol-5-yl)-7-(3-fluoro-1-(methyl-d3)-1H-pyrazol-4-yl)-3-(methyl-d3)-2-oxo-3,6-dihydroimidazo[4,5-d]pyrrolo[2,3-b]pyridin-1(2H)-yl)cyclopentyl)carbamate] | ≤ 300 nM | ≤ 2500 nM | ‡ ‡ (h-IntCL of ≥0.7 L/h/kg to ≤1 L/h/kg)
[2H]C([2H])([2H])n1cc(-c2[nH]c3ncc4c(c3c2-c2ccc3c(cnn3CC(F)F)c2)n([C@@H]2CC[C@@H](NC(=O)OC)C2)c(=O)n4C)c(F)n1 [Example 18, Methyl ((1R,3R)-3-(8-(1-(2,2-difluoroethyl)-1H-indazol-5-yl)-7-(3-fluoro-1-(methyl-d3)-1H-pyrazol-4-yl)-3-methyl-2-oxo-3,6-dihydroimidazo[4,5-d]pyrrolo[2,3-b]pyridin-1(2H)-yl)cyclopentyl)carbamate] | ≤ 300 nM | ≤ 2500 nM | ‡ ‡ (h-IntCL of ≥0.7 L/h/kg to ≤1 L/h/kg)
